Assay results reported in ChEMBL document CHEMBL4602617, “Discovery and optimization of heteroaryl piperazines as potent and selective PI3Kδ inhibitors” (Bioorg Med Chem Lett, 2020).

What was measured:
[1] = target: Cytoplasmic tyrosine-protein kinase BMX (Homo sapiens, UniProt P51813); test: Inhibition of recombinant full length human His-tagged BMX cytoplasmic domain expressed in baculovirus expression system using tyrosine-1 peptide as substrate incubated for 60 mins in presence of ATP by Z'-LYTE assay
[2] = target: AMP-activated protein kinase (AMPK) alpha-1/beta-1/gamma-1 (Homo sapiens, UniProt P54619+Q13131+Q9Y478); test: Inhibition of recombinant full length GST/His-tagged human AMPK alpha1/beta1/gamma1 expressed in insect cells using Ser/Thr-23 peptide as substrate incubated for 60 mins in presence of ATP by Z'-LYTE assay
[3] = target: Peroxisome proliferator-activated receptor alpha (Homo sapiens) (UniProt Q07869); test: Inhibition of human PPARalpha expressed in Escherichia coli at 10 uM relative to control
Cavia porcellus = species: Cavia porcellus; test: Displacement of [3H]nitrobenzylthioinosine from adenosine transporter in guinea pig cerebral cortical membranes at 10 uM after 30 mins by radiometric scintillation analysis relative to control
[4] = target: 5-hydroxytryptamine receptor 1B (Rattus norvegicus) (UniProt P28564); test: Displacement of [125I]cyanopindolol from 5HT1B receptor in Wistar rat cerebral cortical membranes at 10 uM measured after 90 mins by radiometric scintillation analysis relative to control
[5] = target: Prostacyclin receptor (Homo sapiens) (UniProt P43119); test: Inhibition of human prostanoid IP receptor at 10 uM relative to control
[6] = target: Prostaglandin E2 receptor EP3 subtype (Homo sapiens) (UniProt P43115); test: Inhibition of human prostanoid EP3 receptor at 10 uM relative to control
[7] = target: Beta-2 adrenergic receptor (Homo sapiens) (UniProt P07550); test: Displacement of [3H]CGP-12177 from full-length recombinant human beta2 adrenergic receptor expressed in CHO cells co-expressing NBR1 at 10 uM measured after 60 mins by scintillation counting method relative to control; assay type: cell-based
[8] = target: Beta-1 adrenergic receptor (Homo sapiens) (UniProt P08588); test: Displacement of [125I]cyanopindolol from full-length recombinant human beta1 adrenergic receptor expressed in CHOK1 cells at 10 uM measured after 120 mins by scintillation counting method relative to control; assay type: cell-based; conditions: CHO-K1
[9] = target: Dual specificity protein kinase CLK1 (Homo sapiens, UniProt P49759); test: Inhibition of recombinant human GST-tagged CLK1 catalytic domain (129 to 484 residues) expressed in Escherichia coli expression system using serine/threonine-9 peptide as substrate incubated for 60 mins in presence of ATP by Z'-LYTE assay
Ephrin type-A receptor 4 = Ephrin type-A receptor 4 (Homo sapiens, UniProt P54764); test: Inhibition of recombinant human GST-tagged EPHA4 cytoplasmic domain expressed in baculovirus expression system using tyrosine-02 peptide as substrate incubated for 60 mins in presence of ATP by Z'-Lyte assay
[10] = target: Interleukin-1 receptor-associated kinase 1 (Homo sapiens, UniProt P51617); test: Inhibition of recombinant human GST-tagged IRAK1 catalytic domain (194 to 712 residues) expressed in baculovirus expression system using Histone H3 (1-20) peptide as substrate incubated for 60 mins in presence of ATP by Adapta assay
[11] = target: Tyrosine-protein kinase JAK1 (Homo sapiens, UniProt P23458); test: Inhibition of human recombinant GST tagged JAK1 expressed in baculovirus expression system using Tyr6 peptide as substrate measured after 1 hr in presence of ATP by Z'-LYTE assay
[12] = target: Tyrosine-protein kinase JAK2 (Homo sapiens, UniProt O60674); test: Inhibition of human recombinant N-terminal GST tagged JAK2 JH1 catalytic domain (532 to 1132 residues) expressed in baculovirus expression system using Tyr6 peptide as measured after 1 hr in presence of ATP by Z'-LYTE assay
[13] = target: Leucine-rich repeat serine/threonine-protein kinase 2 (Homo sapiens, UniProt Q5S007); test: Inhibition of recombinant human GST-tagged LRRK2 catalytic domain (970 to 2527 amino acids) expressed in baculovirus expression system using ERM (LRRKtide) peptide as substrate incubated for 60 mins in presence of ATP by Adapta assay
[14] = target: Muscle, skeletal receptor tyrosine-protein kinase (Homo sapiens, UniProt O15146); test: Inhibition of recombinant human GST-tagged MUSK cytoplasmic domain (519 to 869 residues) expressed in baculovirus expression system using tyrosine-4 peptide as substrate incubated for 60 mins in presence of ATP by Z'-LYTE assay
[15] = target: Serine/threonine-protein kinase PAK 1 (Homo sapiens, UniProt Q13153); test: Inhibition of recombinant full length human GST-tagged PAK1 expressed in baculovirus expression system using serine/threonine-19 peptide as substrate incubated for 60 mins in presence of ATP by Z'-LYTE assay
[16] = target: Protein kinase C alpha type (Homo sapiens, UniProt P17252); test: Inhibition of recombinant human GST-tagged PKCalpha expressed in insect expression system using serine/threonine-7 peptide as substrate incubated for 60 mins in presence of ATP by Z'-LYTE assay
[17] = target: Protein kinase C iota type (Homo sapiens, UniProt P41743); test: Inhibition of recombinant full length human His-tagged PRKCI expressed in baculovirus expression system using serine/threonine-7 peptide as substrate incubated for 60 mins in presence of ATP by Z'-LYTE assay
[18] = target: Serine/threonine-protein kinase D1 (Homo sapiens, UniProt Q15139); test: Inhibition of recombinant full length human GST-tagged PKCmu expressed in baculovirus expression system using serine/threonine-17 peptide as substrate incubated for 60 mins in presence of ATP by Z'-LYTE assay
[19] = target: Ribosomal protein S6 kinase alpha-4 (Homo sapiens, UniProt O75676); test: Inhibition of recombinant full length human GST-tagged RPS6KA4 expressed in baculovirus expression system using ser/Thr01 peptide as substrate incubated for 60 mins in presence of ATP by Z'-LYTE assay
Sphingosine kinase 2 = Sphingosine kinase 2 (Homo sapiens, UniProt Q9NRA0); test: Inhibition of recombinant full length GST-tagged human SPHK2 expressed in baculovirus expression system using Sphingosine lipid as substrate in presence of ATP after 1 hr by Adapta assay
SRSF protein kinase 3 = SRSF protein kinase 3 (Homo sapiens, UniProt Q9UPE1); test: Inhibition of recombinant full length human GST-tagged MSSK1 expressed in baculovirus expression system using serine/threonine-18 peptide as substrate incubated for 60 mins in presence of ATP by Z'-LYTE assay
[20] = target: Serine/threonine-protein kinase 3 (Homo sapiens, UniProt Q13188); test: Inhibition of recombinant full length human GST-tagged MST2 expressed in baculovirus expression system using serine/threonine-7 peptide as substrate incubated for 60 mins in presence of ATP by Z'-LYTE assay
[21] = target: Non-receptor tyrosine-protein kinase TYK2 (Homo sapiens, UniProt P29597); test: Inhibition of recombinant human GST-tagged TYK2 catalytic domain (833 to 1187 residues) expressed in baculovirus expression system using tyrosine-3 peptide as substrate incubated for 60 mins in presence of ATP by Z'-LYTE assay

Leucine-rich repeat serine/threonine-protein kinase 2, sequence (Q5S007 whole entry, the tested form may be a part): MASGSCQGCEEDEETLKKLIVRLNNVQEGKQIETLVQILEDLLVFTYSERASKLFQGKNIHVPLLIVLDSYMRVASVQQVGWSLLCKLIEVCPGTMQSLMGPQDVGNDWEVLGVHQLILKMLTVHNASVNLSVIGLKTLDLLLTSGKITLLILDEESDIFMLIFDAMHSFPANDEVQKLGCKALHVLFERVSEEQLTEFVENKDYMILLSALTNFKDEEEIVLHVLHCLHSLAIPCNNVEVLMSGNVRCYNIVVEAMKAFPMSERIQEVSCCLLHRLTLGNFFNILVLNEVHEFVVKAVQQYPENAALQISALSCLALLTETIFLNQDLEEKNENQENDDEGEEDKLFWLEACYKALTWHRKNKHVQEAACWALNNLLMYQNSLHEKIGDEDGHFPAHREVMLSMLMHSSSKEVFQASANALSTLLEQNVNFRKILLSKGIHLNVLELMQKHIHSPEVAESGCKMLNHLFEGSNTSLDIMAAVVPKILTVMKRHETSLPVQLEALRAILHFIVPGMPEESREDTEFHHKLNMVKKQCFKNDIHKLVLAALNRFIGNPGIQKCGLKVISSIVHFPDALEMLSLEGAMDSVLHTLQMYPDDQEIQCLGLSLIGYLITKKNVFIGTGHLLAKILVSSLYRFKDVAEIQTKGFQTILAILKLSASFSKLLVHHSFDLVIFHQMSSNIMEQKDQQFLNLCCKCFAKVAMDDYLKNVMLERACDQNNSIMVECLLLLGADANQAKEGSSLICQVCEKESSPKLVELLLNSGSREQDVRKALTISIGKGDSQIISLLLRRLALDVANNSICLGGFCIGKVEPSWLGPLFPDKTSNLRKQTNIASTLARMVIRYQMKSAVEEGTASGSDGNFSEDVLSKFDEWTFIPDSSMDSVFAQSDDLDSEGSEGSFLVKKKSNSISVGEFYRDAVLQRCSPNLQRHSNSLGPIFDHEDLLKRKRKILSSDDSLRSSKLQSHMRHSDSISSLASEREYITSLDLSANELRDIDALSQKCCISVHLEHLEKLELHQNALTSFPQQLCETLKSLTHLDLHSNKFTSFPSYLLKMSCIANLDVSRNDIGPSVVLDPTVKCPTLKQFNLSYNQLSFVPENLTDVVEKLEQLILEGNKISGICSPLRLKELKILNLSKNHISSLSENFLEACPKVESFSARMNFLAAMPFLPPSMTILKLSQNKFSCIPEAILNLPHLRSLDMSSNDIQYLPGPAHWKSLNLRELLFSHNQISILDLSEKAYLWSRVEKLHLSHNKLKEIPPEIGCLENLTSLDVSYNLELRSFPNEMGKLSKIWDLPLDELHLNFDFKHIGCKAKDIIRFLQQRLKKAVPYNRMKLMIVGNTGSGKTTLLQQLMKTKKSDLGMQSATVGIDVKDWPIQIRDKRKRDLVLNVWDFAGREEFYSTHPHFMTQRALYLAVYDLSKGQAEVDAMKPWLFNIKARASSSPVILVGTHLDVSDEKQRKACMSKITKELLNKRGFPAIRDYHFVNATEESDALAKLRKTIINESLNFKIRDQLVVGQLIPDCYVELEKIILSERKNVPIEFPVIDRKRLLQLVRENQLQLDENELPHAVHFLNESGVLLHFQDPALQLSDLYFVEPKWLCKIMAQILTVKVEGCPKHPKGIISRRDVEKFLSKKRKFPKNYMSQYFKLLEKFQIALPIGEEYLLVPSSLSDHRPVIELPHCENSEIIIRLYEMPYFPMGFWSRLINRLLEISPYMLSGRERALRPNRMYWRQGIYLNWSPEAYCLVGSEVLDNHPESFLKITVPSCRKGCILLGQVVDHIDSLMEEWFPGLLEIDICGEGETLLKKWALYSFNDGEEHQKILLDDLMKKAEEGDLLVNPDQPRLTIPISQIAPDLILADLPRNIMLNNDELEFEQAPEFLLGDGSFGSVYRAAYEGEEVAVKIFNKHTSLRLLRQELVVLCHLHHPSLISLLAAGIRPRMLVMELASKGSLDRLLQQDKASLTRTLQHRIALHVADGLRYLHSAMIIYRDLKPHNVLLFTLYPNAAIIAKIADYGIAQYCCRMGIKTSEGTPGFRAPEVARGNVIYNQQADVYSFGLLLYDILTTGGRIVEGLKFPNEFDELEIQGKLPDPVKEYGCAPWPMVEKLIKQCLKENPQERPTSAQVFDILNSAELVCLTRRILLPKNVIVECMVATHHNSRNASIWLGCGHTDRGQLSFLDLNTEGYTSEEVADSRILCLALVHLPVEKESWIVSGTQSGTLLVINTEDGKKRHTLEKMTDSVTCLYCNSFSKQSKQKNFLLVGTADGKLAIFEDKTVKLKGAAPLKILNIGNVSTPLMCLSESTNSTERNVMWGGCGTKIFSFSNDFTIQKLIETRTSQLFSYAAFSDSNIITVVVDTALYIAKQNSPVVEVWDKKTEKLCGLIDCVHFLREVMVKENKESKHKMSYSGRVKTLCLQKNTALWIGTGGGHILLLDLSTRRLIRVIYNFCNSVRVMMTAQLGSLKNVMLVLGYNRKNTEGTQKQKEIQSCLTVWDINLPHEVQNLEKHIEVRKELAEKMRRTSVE
Ephrin type-A receptor 4, sequence (P54764 whole entry, the tested form may be a part): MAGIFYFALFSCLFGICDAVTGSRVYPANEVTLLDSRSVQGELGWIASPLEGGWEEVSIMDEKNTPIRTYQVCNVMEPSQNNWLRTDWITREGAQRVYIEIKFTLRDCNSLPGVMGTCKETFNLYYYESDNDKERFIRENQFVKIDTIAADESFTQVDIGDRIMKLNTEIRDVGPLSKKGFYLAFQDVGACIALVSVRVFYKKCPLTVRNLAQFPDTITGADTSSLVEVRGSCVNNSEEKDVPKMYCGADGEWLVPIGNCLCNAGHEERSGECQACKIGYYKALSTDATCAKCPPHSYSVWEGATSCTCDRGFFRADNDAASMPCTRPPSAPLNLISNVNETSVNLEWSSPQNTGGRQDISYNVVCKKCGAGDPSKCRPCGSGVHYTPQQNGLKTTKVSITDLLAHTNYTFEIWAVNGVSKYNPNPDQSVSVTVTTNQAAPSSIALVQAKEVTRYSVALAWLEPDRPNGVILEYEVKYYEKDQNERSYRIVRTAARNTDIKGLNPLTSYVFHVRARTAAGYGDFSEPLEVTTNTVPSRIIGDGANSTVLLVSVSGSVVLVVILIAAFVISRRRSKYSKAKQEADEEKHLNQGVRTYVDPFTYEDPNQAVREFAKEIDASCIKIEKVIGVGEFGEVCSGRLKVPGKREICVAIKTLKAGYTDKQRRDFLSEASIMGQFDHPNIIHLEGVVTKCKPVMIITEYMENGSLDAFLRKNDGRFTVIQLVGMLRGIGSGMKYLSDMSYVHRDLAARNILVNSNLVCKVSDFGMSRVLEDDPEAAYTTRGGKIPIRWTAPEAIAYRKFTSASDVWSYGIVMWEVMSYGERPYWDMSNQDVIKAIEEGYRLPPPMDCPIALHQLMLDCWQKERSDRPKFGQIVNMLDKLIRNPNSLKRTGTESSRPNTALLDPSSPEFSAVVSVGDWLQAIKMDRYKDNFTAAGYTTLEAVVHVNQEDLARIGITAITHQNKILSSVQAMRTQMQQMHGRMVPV
Serine/threonine-protein kinase D1, sequence (Q15139 whole entry): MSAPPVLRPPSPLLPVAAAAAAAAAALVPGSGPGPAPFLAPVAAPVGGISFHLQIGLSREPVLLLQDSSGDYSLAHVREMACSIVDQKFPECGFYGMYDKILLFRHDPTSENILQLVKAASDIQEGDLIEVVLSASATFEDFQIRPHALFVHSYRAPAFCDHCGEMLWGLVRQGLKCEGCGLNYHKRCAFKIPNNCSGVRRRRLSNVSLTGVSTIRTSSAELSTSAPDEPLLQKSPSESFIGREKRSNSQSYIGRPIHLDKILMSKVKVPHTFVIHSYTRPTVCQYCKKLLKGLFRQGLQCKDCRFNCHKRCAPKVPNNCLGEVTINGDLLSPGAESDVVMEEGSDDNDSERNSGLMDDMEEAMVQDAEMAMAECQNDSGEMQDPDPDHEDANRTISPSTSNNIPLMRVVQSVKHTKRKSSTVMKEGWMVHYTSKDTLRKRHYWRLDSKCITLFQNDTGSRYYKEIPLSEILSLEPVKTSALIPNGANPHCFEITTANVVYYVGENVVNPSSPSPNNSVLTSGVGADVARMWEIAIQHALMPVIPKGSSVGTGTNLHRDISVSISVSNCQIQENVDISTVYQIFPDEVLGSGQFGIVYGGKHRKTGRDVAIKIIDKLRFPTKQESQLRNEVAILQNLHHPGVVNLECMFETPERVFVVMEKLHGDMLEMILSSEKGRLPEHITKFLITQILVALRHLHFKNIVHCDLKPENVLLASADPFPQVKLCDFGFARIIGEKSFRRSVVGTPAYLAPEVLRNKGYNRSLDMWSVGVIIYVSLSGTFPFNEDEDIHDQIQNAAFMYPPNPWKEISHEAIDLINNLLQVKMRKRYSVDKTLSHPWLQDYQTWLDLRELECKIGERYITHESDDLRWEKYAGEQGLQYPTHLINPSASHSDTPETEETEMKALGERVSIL
Cytoplasmic tyrosine-protein kinase BMX, sequence (P51813 whole entry, the tested form may be a part): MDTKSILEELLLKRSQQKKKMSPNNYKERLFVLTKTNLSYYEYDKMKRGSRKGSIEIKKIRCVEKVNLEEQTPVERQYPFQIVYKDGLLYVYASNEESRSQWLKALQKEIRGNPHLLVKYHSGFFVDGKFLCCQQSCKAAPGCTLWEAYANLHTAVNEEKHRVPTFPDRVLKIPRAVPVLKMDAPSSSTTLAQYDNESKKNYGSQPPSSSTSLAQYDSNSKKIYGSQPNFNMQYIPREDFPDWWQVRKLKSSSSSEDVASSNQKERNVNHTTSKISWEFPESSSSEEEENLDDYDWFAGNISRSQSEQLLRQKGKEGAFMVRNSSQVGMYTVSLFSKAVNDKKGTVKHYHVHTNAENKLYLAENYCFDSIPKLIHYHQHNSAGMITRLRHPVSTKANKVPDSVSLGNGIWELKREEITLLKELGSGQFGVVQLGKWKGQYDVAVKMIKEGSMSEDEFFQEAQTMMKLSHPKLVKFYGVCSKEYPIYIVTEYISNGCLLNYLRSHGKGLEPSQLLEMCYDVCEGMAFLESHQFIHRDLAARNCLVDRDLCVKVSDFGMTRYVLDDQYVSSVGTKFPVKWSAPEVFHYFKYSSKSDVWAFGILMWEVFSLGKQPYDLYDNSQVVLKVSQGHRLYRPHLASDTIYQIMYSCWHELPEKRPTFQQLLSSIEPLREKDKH

C[C@@H]1C[C@H]1C(=O)N1CCN(c2cnc(C#N)c(-c3cnn(C)c3)n2)C[C@H]1C
IC50 [1]: > 100 µM | IC50 [2]: > 100 µM | inhibition [3]: > 50% | inhibition (Cavia porcellus): 41% | inhibition [4]: -5% | inhibition [5]: -1% | inhibition [6]: 7% | inhibition [7]: 7% | inhibition [8]: 4% | IC50 [9]: > 100 µM | IC50 (Ephrin type-A receptor 4): > 100 µM | IC50 [10]: > 100 µM | IC50 [11]: > 100 µM | IC50 [12]: > 100 µM | IC50 [13]: > 100 µM | IC50 [14]: > 100 µM | IC50 [15]: > 100 µM | IC50 [16]: > 100 µM | IC50 [17]: > 100 µM | IC50 [18]: > 100 µM | IC50 [19]: > 100 µM | IC50 (Sphingosine kinase 2): > 100 µM | IC50 (SRSF protein kinase 3): > 100 µM | IC50 [20]: > 100 µM | IC50 [21]: > 100 µM
